# In paper PMC5047629, “Synthesis, Pharmacological Profile and Docking Studies of New Sulfonamides Designed as Phosphodiesterase-4 Inhibitors” (PLoS ONE, 2016):
# What was measured:
# PDEs5-11 = assay: PDE selectivity profile evaluated by CEREP; assay type: biochemical, human; details: 10 μM; data not shown
# Procedure: The selectivity profile of compound 6a (LASSBio-448) toward the human PDE1, PDE2, PDE5-PDE8, PDE10 and PDE11 was evaluated by CEREP.
# PDE3 = PDE3 activity inhibition; assay type: biochemical; details: 10 μM
# A/J mice [1] = assay: Murine model of asthma with 4 weekly OVA provocations (days 14, 21, 28, 35), interventional treatment; assay type: in vivo; details: LASSBio-448 100 mg/Kg oral
# Procedure: Sensitization was performed by means of a subcutaneous injection of 50 μg ovalbumin (OVA) (grade V; Sigma-Aldrich, St. Louis, MO) adsorbed to 5 mg of Al(OH)3 in 0.2 mL of sterile 0.9% NaCl (saline) at days 0 and 14. Intranasal OVA provocations (25 μg /25 μL saline) were performed at 19 and 20 days post-sensitization under isofluorane volatile anaesthesia (Cristalia, São Paulo, Brazil). Alternatively, sensitization as described above were done at days 0 and 7, while the OVA provocations were carried out at days 14, 21, 28 and 35 [39]. Negative control groups were represented by sensitized mice in which allergen was replaced by saline as a challenge. Treatments were done orally 1 h before provocations. Test compounds were dissolved in saline containing 0.2% Tween 80. All solutions were freshly prepared immediately before use. Analyses were performed 24 h after the last provocation.
# (§1) Airflow and transpulmonary pressure were recorded with a Buxco pulmonary mechanics processing system (Buxco Electronics, Sharon, CT), which calculated resistance (cmH2O.s/ml) and dynamic lung compliance (mL/cmH2O) in each breath cycle. Elastance was calculated as the inverse of compliance values. Mice were anesthetized with nembutal (60 mg/kg), and the neuromuscular activity was blocked with bromide pancuronium (1 mg/kg). Animals were allowed to stabilize for 5 min and increasing concentrations of methacholine (3–27 mg/mL) were aerosolized for 5 min each. Baseline pulmonary parameters were assessed with aerosolized phosphate buffer solution (PBS).
# The EPO activity present in lung tissue was determined with a colorimetric assay as described by Strath et al. (1985), with minor modifications. Briefly, the lungs were cannulated and perfused with saline/EDTA (20 mM). Then, lung samples were homogenized in buffer solution containing 0.5% HBSS (Hank´s balanced solution, pH 7.4; Sigma Chemical Co.) using a tissue homogenizer (T25 ultra-Tirrax). Samples were centrifuged at 1300 xg for 10 min at 4°C. Red blood cells were removed by hypotonic and hypertonic lysis. The suspended cells were then centrifuged again at 1300 xg for 10 min at 4°C. The pellet was then suspended in a solution of HBSS containing 0.5% of HTAB (hexadecyltrimethylamonium bromide; Sigma Chemical Co.) (pH 7.4). This suspension was subjected to heat shock for lysing the cells in three cycles freeze/thawed. At the end, the supernatants were collected, centrifuged at 12000 rpm for 15 min at 4°C and assayed spectrophotometrically for EPO determination. Fifty μl of the samples were placed, and then 50 μl of the substrate (1.5 mM o-phenylenediamine and 6.6 mM hydrogen peroxide in 0.05 mM Tris-HCl buffer, pH 8.0) was added and, after a 30 min incubation at room temperature, 50 μl of H2SO4 (4M) was added to stop the reaction. The optical density reading was performed on the SpectraMax M5 spectrophotometer (Molecular Devices) at a wavelength of 492 nm.
# Right lungs tissue samples from saline- and OVA-exposed mice were homogenized in PBS containing 0.05% Triton X-100 and a protease inhibitor cocktail (Complete®, Hoffmann-La Roche Ltd, Basel, Switzerland). After centrifugation at 13000xg for 10 min and 4°C, the levels of IL-13, IL-5, IL-4 and eotaxin-2 were quantified in the supernatant, using commercially available ELISA kits (DuoSet; R&D Systems, Minneapolis, MN, USA). The results were expressed as picograms of cytokine per right lung.
# A/J mice [2] = assay: LPS-induced lung inflammation and airway hyper-reactivity; assay type: in vivo; details: LASSBio-448 2.5 and 10 mg/kg oral, cilomilast 1 mg/kg oral, 1 h before LPS, 24 h post-challenge
# Procedure: A/J mice were anesthetized with isoflurane aerosol and then challenged with LPS (25μg/25 μL) or phosphate buffered solution (PBS) by intranasal instillation as reported. The analyses were performed 24 h after stimulation. Treatment with LASSBio-448 (2.5–10 mg/kg/mice) or cilomilast (1 mg/kg) was performed orally, 1 h before LPS exposure. LASSBio-448 was dissolved in 0.2% Tween 80, while cilomilast was dissolved in 1 M NaOH and further neutralized with 1 N HCl, before adjusting the final volume with 0.9% NaCl solution (saline). The substances were dissolved immediately before use.
# as §1
# The MPO activity present in the lung tissue was colorimetrically determined as described by Hirano (1996), with minor changes. Briefly, after lung perfusion with 20 mM EDTA in 0.9% saline, lung samples were homogenized in Hank´s balanced solution (HBSS) at pH 7.4. The homogenates were centrifuged for 10 min at 1300 xg and 4°C. Red blood cells were removed by hypotonic and hypertonic lysis and suspended cells were re-centrifuged as described above. The pellet was then suspended in HBSS at pH 7.4 containing 0.5% hexadecyltrimethyl ammonium bromide (HTAB). The homogenates were centrifuged for 30 min at 12500 xg and 4°C. The supernatants were then collected and incubated with 0.167 mg/mL of ortho-dianisidine dihydrochloride for 15 min at 37°C, after which 0.0006% H2O2 in 50 mM phosphate buffer at pH 6 was added. The reaction was stopped 10 min later by adding 50 μL of 1% sodium azide. The measurement was done at 460 nm using the SpectraMax M5 microplate reader (Molecular Devices).
# A/J mice [3] = assay: Duration of xylazine/ketamine anesthesia (behavioral correlate of emesis); assay type: in vivo
# Procedure: This assessment was carried out as previously reported. […] The animals were placed in dorsal position and their spontaneous return to the prone position was used as an endpoint to determine anesthesia duration.
# [4] = rolipram 10 mg/Kg oral, right lung, 24 h after last challenge, vs vehicle, Fig 8
smiles,measurement,setting,value
"COc1ccc(CCNS(=O)(=O)c2cc3c(cc2C)OCO3)cc1OC [6a (LASSBio-448), N-(3,4-dimethoxyphenethyl)-6-methylbenzo[d][1, 3]dioxole-5-sulfonamide]",inhibition of PDEs5-11,PDEs5-11,unable to inhibit
same,inhibition of PDE3 activity,PDE3,failed to inhibit
same,extracellular matrix deposition (histology),"A/J mice [1]; interventional, Fig 6",sensitive to the interventional treatment
same,mucus exacerbation (histology),"A/J mice [1]; interventional, Fig 6",sensitive to the interventional treatment
same,"airway hyper-reactivity to methacholine, airway resistance","A/J mice [1]; rolipram 10 mg/Kg oral, Fig 7A",equally effective in inhibiting
same,"airway hyper-reactivity to methacholine, lung elastance","A/J mice [1]; rolipram 10 mg/Kg oral, Fig 7B",equally effective in inhibiting
same,IL-4 level in lung tissue,A/J mice [1]; [4],reduction in the levels
same,IL-5 level in lung tissue,A/J mice [1]; [4],reduction in the levels
same,IL-13 level in lung tissue,A/J mice [1]; [4],reduction in the levels
same,eotaxin-2 level in lung tissue,A/J mice [1]; [4],reduction in the levels
same,allergen-induced eosinophil accumulation in the lung tissue (eosinophil peroxidase),"A/J mice [1]; rolipram 10 mg/kg oral, at third and fourth weeks of challenge, Fig 5",impair the progress
same,LPS-induced airway hyper-reactivity (lung elastance after methacholine 3–27 mg/ml),A/J mice [2]; Fig 9A,dose-dependently prevented
same,neutrophil infiltration into the lung tissue (MPO activity),A/J mice [2]; Fig 9B,marked reduction
same,reduction of sleep time (duration of xylazine/ketamine anesthesia),A/J mice [3]; 11 μmol/Kg oral,24.1%
same,reduction of sleep time (duration of xylazine/ketamine anesthesia),A/J mice [3]; 27 μmol/Kg oral,26.6%
same,reduction of sleep time (duration of xylazine/ketamine anesthesia),A/J mice [3]; 80 μmol/Kg oral,35.5%
same,fold less pro-emetic than rolipram,A/J mice [3]; vs rolipram,at least 7 fold
